Results on 16 compounds are retold here after patent US8916557B2, “Substituted 4-Aryl-N-phenyl-1,3,5-triazin-2-amines” (Bayer Intellectual Property GmbH, priority 2011, dated 2014).

The target of one series is T1, CDK9/CycT1 (Homo sapiens, UniProt P50750).
T1 construct: Recombinant full-length His-tagged human CDK9 and CycT1; His; purchased Invitrogen PV4131; host or cells: insect cells
Kind of series: CDK9/CycT1 kinase assay (TR-FRET). It counts as biochemical. Particulars: Method 1, 10 μM ATP. An outline of the steps:
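Full-length His-tagged human CDK9/CycT1 (insect-cell expressed), 15 min compound pre-incubation, then 25 min at 22 °C with 10 µM ATP (final) and 1 µM biotinylated peptide (final) in Tris pH 8.0/MgCl2 buffer. Phospho-substrate detected by TR-FRET (anti-RB pSer807/pSer811, Eu anti-mouse IgG, streptavidin-XL665); 665/622 nm emission ratio as read-out.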

The subject of series [1] is HeLa-MaTu-ADR, multidrug-resistant human cervical carcinoma cells. Put plainly: Proliferation assay (crystal violet), HeLa-MaTu-ADR. Particulars: read-out: Inhibition of HeLa/MaTu/ADR cell proliferation. It counts as cell-based. The method, then: (§1) Cultivated tumour cells (NCI-H460, human non-small cell lung carcinoma cells, ATCC HTB-177; DU 145, hormone-independent human prostate carcinoma cells, ATCC HTB-81; HeLa-MaTu, human cervical carcinoma cells, EPO-GmbH, Berlin; HeLa-MaTu-ADR, multidrug-resistant human cervical carcinoma cells, EPO-GmbH, Berlin; HeLa human cervical tumour cells, ATCC CCL-2; Caco-2 human colorectal carcinoma, ATCC HTB-37; B16F10 mouse melanoma cells, ATCC CRL-6475) were plated at a density of 5000 cells/well (DU145, HeLa-MaTu-ADR), 3000 cells/well (NCI-H460, HeLa-MaTu, HeLa), 1500 cells/well (Caco-2), or 1000 cells/well (B16F10) in a 96-well multititer plate in 200 μL of their respective growth medium supplemented 10% fetal calf serum. After 24 hours, the cells of one plate (zero-point plate) were stained with crystal violet (see below), while the medium of the other plates was replaced by fresh culture medium (200 μl), to which the test substances were added in various concentrations (0 μM, as well as in the range of 0.001-10 μM; the final concentration of the solvent dimethyl sulfoxide was 0.5%). The cells were incubated for 4 days in the presence of test substances. Cell proliferation was determined by staining the cells with crystal violet: the cells were fixed by adding 20 μl/measuring point of an 11% glutaric aldehyde solution for 15 minutes at room temperature. After three washing cycles of the fixed cells with water, the plates were dried at room temperature. The cells were stained by adding 100 μl/measuring point of a 0.1% crystal violet solution (pH 3.0). After three washing cycles of the stained cells with water, the plates were dried at room temperature. The dye was dissolved by adding 100 μl/measuring point of a 10% acetic acid solution. The extinction was determined by photometry at a wavelength of 595 nm. The change of cell number, in percent, was calculated by normalization of the measured values to the extinction values of the zero-point plate (=0%) and the extinction of the untreated (0 μm) cells (=100%). The IC50 values were determined by means of a 4 parameter fit.

For series [2], the system named is HeLa human cervical tumour cells. Kind of series: Proliferation assay (crystal violet), HeLa. Particulars: read-out: Inhibition of HeLa cell proliferation. Type of series: cell-based.
Series [3] concerns DU 145, hormone-independent human prostate carcinoma cells. Put plainly: Proliferation assay (crystal violet), DU 145. It counts as cell-based. Particulars: DU145 cells, read-out: Inhibition of DU145 cell proliferation.
The subject of series [4] is NCI-H460, human non-small cell lung carcinoma cells. Kind of series: Proliferation assay (crystal violet), NCI-H460. Type of series: cell-based. Particulars: read-out: Inhibition of H460 cell proliferation (activity range). The method, then: as §1
For series [5], the system named is B16F10 mouse melanoma cells. Put plainly: Proliferation assay (crystal violet), B16F10. Type of series: cell-based. Particulars: B16-F10, read-out: Inhibition of B16F10 cell proliferation. The method, then: as §1
For series [6], the system named is Caco-2 human colorectal carcinoma. Kind of series: Proliferation assay (crystal violet), Caco-2. Particulars: CACO-2 cells, read-out: Inhibition of CACO-2 cell proliferation. Type of series: cell-based.
In another series the target is T2, CDK2/CycE (Homo sapiens, UniProt P24941).
T2 construct: GST; purchased ProQinase GmbH (Freiburg, Germany); host or cells: insect cells (Sf9)
Put plainly: CDK2/CycE kinase assay (TR-FRET). Type of series: biochemical. Particulars: Method 2, 10 μM ATP. Summed up: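 TR-FRET read-out: emission ratio 665/620 nm via anti-RB(pSer807/pSer811) antibody, Eu-anti-mouse IgG and streptavidin-XL665. Kinase reaction: insect-cell GST-CDK2/CycE, compound pre-bound 15 min, 10 μM ATP final, 0.75 μM biotin-peptide, 25 min, 22 °C, pH 8.0.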

A short description of a further series: Caco-2 permeation assay. Type of series: in vitro ADME. Particulars: human.

SMILES strings stand for the structures.

T1 sequence (P50750 whole entry): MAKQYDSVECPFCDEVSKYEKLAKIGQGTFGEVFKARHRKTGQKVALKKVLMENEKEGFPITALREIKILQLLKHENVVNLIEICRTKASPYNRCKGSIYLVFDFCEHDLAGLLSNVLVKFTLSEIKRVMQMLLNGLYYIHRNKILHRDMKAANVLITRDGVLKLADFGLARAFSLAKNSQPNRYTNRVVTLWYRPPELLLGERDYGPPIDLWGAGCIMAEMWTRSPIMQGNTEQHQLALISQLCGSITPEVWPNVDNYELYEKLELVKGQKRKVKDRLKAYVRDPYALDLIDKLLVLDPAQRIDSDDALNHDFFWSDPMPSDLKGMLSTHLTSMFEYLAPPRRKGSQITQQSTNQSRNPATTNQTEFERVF
T1 sequence (O60563 whole entry partner): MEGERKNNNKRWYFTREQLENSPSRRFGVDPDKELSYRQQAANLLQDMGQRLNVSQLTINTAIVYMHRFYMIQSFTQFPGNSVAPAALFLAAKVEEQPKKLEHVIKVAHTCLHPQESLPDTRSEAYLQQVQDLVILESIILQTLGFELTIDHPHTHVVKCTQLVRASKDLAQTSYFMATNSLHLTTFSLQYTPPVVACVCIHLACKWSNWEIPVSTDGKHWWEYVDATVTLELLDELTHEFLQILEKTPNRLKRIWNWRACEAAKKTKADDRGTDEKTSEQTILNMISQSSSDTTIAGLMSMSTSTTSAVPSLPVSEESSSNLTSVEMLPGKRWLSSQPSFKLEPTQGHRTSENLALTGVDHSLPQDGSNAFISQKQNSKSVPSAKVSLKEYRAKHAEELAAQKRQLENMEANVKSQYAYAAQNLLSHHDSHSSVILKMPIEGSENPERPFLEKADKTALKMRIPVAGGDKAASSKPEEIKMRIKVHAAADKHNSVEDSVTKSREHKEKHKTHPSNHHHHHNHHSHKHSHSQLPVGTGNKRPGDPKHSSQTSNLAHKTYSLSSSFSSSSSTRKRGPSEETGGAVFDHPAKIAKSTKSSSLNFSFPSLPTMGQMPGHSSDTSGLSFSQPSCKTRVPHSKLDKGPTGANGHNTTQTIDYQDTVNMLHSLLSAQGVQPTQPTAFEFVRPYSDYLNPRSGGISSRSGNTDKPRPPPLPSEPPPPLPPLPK

Take `CS(=O)(=O)Cc1cccc(Nc2ncnc(-c3ccc(F)cc3OCc3ccc(F)c(F)c3)n2)c1` [Example 86, 4-{2-[(3,4-Difluoro-benzyl)oxy]-4-fluorophenyl}-N-{3-[(methylsulfonyl)-methyl]phenyl}-1,3,5-triazin-2-amine]: the IC50 against CDK9/CycT1 was 6 nM; in series [1], 220 nM; in [2], 250 nM; in series [3], 230 nM; in series [4], 270 nM; in [5], 250 nM. Further, the IC50 in series [6] worked out at 200 nM.

In the case of `CS(=O)(=O)Cc1cccc(Nc2ncnc(-c3ccc(F)cc3OCc3cc(F)cc(F)c3F)n2)c1` [Example 84, 4-{4-Fluoro-2-[(2,3,5-trifluorobenzyl)oxy]phenyl}-N-{3-[(methylsulfonyl)methyl]-phenyl}-1,3,5-triazin-2-amine], the IC50 was 3 nM on CDK9/CycT1; 280 nM in series [1]; 340 nM in [2]; 350 nM in series [3]; 310 nM in series [4]; 490 nM in series [5]. Besides, the IC50 in series [6] came to 320 nM.

Turning to `CS(=O)(=O)Cc1cccc(Nc2ncnc(-c3cccc4c3OCC4)n2)c1` [Example 13, 4-(2,3-Dihydro-1-benzofuran-7-yl)-N-{3-[(methylsulfonyl)methyl]phenyl}-1,3,5-triazin-2-amine], the IC50 at CDK9/CycT1 came out at 15 nM; at CDK2/CycE, 710 nM; in series [2] it was 950 nM.

As to `COc1cc(F)ccc1-c1ncnc(Nc2cccc(CS(=O)(=O)C3CCCC3)c2)n1` [Example 36, N-{3-[(Cyclopentylsulfonyl)methyl]phenyl}-4-(4-fluoro-2-methoxyphenyl)-1,3,5-triazin-2-amine], the IC50 on CDK9/CycT1 stood at 17 nM; against CDK2/CycE, 880 nM; in series [2], 1000 nM.

For `CS(=O)(=O)Cc1cccc(Nc2ncnc(-c3ccc(F)cc3OCc3cccnc3)n2)c1` [Example 74, 4-[4-Fluoro-2-(pyridin-3-ylmethoxy)phenyl]-N-{3-[(methylsulfonyl)methyl]phenyl}-1,3,5-triazin-2-amine], the IC50 at CDK9/CycT1 worked out at 7 nM; on CDK2/CycE, 570 nM; in series [2], 1100 nM.

As for `CC(Oc1cc(F)ccc1-c1ncnc(Nc2cccc(CS(C)(=O)=O)c2)n1)c1ccccc1` (racemic) [Example 68, rac-4-[4-Fluoro-2-(1-phenylethoxy)phenyl]-N-{3-[(methylsulfonyl)methyl]phenyl}-1,3,5-triazin-2-amine], the IC50 against CDK9/CycT1 was 16 nM; on CDK2/CycE it was 1100 nM; in series [2], 1400 nM.

On to `CS(=O)(=O)Cc1cccc(Nc2ncnc(-c3ccccc3OCc3cccc(F)c3)n2)c1` [Example 26, 4-{2-[(3-Fluorobenzyl)oxy]phenyl}-N-{3-[(methylsulfonyl)methyl]phenyl}-1,3,5-triazin-2-amine], for which the values for the IC50 (against CDK9/CycT1; against CDK2/CycE; in series [2]) were 3 nM, 290 nM and 530 nM, respectively. Besides, the efflux ratio at 2 h, 2 μM in “Caco-2 permeation assay” (Caco-2, pH 7.2) worked out at 0.43. In addition, in the series “Caco-2 permeation assay” (Caco-2 monolayer, 2 μM test compound, 2 h, pH 7.2, read-out: Papp A-B (Mari)), the Papp A→B at 2 h, 2 μM was found to be 16.9 ×10⁻⁶ cm/s. Also, in the series “Caco-2 permeation assay” (Caco-2 monolayer, 2 μM test compound, 2 h, pH 7.2, read-out: Papp B-A (Mari)), the apparent permeability from basolateral to apical (Papp B→A) at 2 h, 2 μM was determined as 7.2 ×10⁻⁶ cm/s.

In the case of `CCCCCCOc1cc(F)ccc1-c1ncnc(Nc2cccc(CS(C)(=O)=O)c2)n1` [Example 46, 4-[4-Fluoro-2-(hexyloxy)phenyl]-N-{3-[(methylsulfonyl)methyl]phenyl}-1,3,5-triazin-2-amine], the IC50 came out at 15 nM at CDK9/CycT1, 2700 nM on CDK2/CycE and 2800 nM in series [2].

Turning to `COc1cccc(COc2cc(F)ccc2-c2ncnc(Nc3cccc(CS(C)(=O)=O)c3)n2)c1` [Example 70, 4-{4-Fluoro-2-[(3-methoxybenzyl)oxy]phenyl}-N-{3-[(methylsulfonyl)-methyl]phenyl}-1,3,5-triazin-2-amine], the IC50 was determined as 14 nM on CDK9/CycT1, 1100 nM on CDK2/CycE and 1300 nM in [2].

For `CS(=O)(=O)Cc1cccc(Nc2ncnc(-c3ccc(F)cc3OCCCF)n2)c1` [Example 54, 4-[4-Fluoro-2-(3-fluoropropoxy)phenyl]-N-{3-[(methylsulfonyl)methyl]phenyl}-1,3,5-triazin-2-amine], the values for the IC50 (against CDK9/CycT1; against CDK2/CycE; in [2]) were 29 nM, 1500 nM and 1300 nM, respectively.

On to `CS(=O)(=O)Cc1cccc(Nc2ncnc(-c3ccc(F)cc3OCc3ccc(F)c(F)c3F)n2)c1` [Example 72, 4-{4-Fluoro-2-[(2,3,4-trifluorobenzyl)oxy]-phenyl}-N-{3-[(methylsulfonyl)methyl]-phenyl}-1,3,5-triazin-2-amine], for which the figures for the IC50 (at CDK9/CycT1; on CDK2/CycE; in [2]) were 7 nM, at least 20000 nM and 1160 nM, respectively.

As for `CS(=O)(=O)Cc1cccc(Nc2ncnc(-c3ccc(F)cc3OCC3CCC3)n2)c1` [Example 56, 4-[2-(Cyclobutylmethoxy)-4-fluorophenyl]-N-{3-[(methylsulfonyl)methyl]phenyl}-1,3,5-triazin-2-amine], the IC50 at CDK9/CycT1 was determined as 27 nM; against CDK2/CycE, 1400 nM; in series [2], 1100 nM.

For `C[C@@H](Oc1cc(F)ccc1-c1ncnc(Nc2cccc(CS(C)(=O)=O)c2)n1)c1ccccc1` [Example 79, 4-{4-Fluoro-2-[(1R)-1-phenylethoxy]phenyl}-N-{3-[(methylsulfonyl)methyl]phenyl}-1,3,5-triazin-2-amine], the values for the IC50 (at CDK9/CycT1; against CDK2/CycE; in [2]) were 3 nM, 440 nM and 920 nM, respectively.

`CS(=O)(=O)Cc1cccc(Nc2ncnc(-c3ccc(F)cc3OCc3cccc(F)c3F)n2)c1` [Example 80, 4-{2-[(2,3-Difluorobenzyl)-oxy]-4-fluorophenyl}-N-{3-[(methylsulfonyl)-methyl]phenyl}-1,3,5-triazin-2-amine]: the IC50 against CDK9/CycT1 worked out at 21 nM; against CDK2/CycE it was 2000 nM; in series [2] it was 890 nM.

As for `C[C@@H](Oc1cc(F)ccc1-c1ncnc(Nc2cccc(CS(C)(=O)=O)c2)n1)c1ccc(F)cc1` [Example 67, 4-{4-Fluoro-2-[(1R)-1-(4-fluorophenyl)ethoxy]phenyl}-N-{3-[(methylsulfonyl)-methyl]phenyl}-1,3,5-triazin-2-amine], the IC50 on CDK9/CycT1 worked out at 8 nM; against CDK2/CycE it was 1300 nM; in series [2], 1600 nM.

Turning to `Cc1ccc(COc2cc(F)ccc2-c2ncnc(Nc3cccc(CS(C)(=O)=O)c3)n2)cc1` [Example 77, 4-{4-Fluoro-2-[(4-methylbenzyl)oxy]phenyl}-N-{3-[(methylsulfonyl)-methyl]phenyl}-1,3,5-triazin-2-amine], the IC50 on CDK9/CycT1 was determined as 13 nM; against CDK2/CycE it was 1600 nM; in series [2], 1000 nM.
